{"source": "patent US20260256792A1", "about": "“TREATMENT OF CHRONIC SPONTANEOUS URTICARIA BY ADMINISTERING (R)-2-[3-[4-AMINO-3-(2-FLUORO-4-PHENOXY-PHENYL)PYRAZOLO[3,4-D]PYRIMIDIN-1-YL]PIPERIDINE-1-CARBONYL]-4-METHYL-4-[4-(OXETAN-3-YL)PIPERAZIN-1-YL]PENT-2-ENENITRILE” (priority 2023, published 2026)", "tested_on": "moderate-to-severe chronic spontaneous urticaria (CSU)", "test": "Phase 2 CSU study: urticaria activity score over 7 days (UAS7)", "assay_type": "in vivo, human", "design": "key to UAS7 Median / UAS7 Change from baseline Median / UAS7 change from baseline, Q1 / UAS7 change from baseline, Q3 / UAS7 change from baseline, Max / UAS7 Change from baseline LS Mean (SE): UAS7 points; daily UAS score ranges 0–6 points/day, over 7 days", "text": "The study comprises a 12 week, randomized, double-blind, placebo-controlled, multi-center, dose-ranging efficacy and safety phase, followed by a 40 week open label extension (OLE) phase (see FIG. 1). The study consists of three phases and an optional OLE phase. […] Clinically, CSU is characterized by the spontaneous and recurrent appearance of pruritic hives. The proposed primary endpoints were the UAS7 at Week 12 in EU and EU reference countries and the ISS7 in the US. Regardless of where a participant was from, all assessments were the same. The UAS7 score is a composite score containing both the HSS7 and the ISS7. This allowed a global assessment of the two key components of urticaria: hives and itch. […] The UAS is a validated PRO measure. […] The daily UAS scores range from 0 to 6 point/day. […] Patients were to complete the UAS using the e-diary. […] The following secondary endpoints were to be analyzed using the same approach as for the primary endpoint: • Change from baseline in UAS7 at Week 4 • Change from baseline in UAS7 at Week 12 (for US and US reference countries) • Change from baseline in ISS7 at Week 12 (except US and US reference countries) • Change from baseline in HSS7 at Week 12 The following responder secondary endpoints were to be analyzed using the Cochran-Mantel-Haenszel test adjusted by region: • Proportion of participants with UAS7<6 at Week 12 • Proportion of participants with UAS7=0 at Week 12 Participants who received selected prohibited medications and/or rescue medications were to be considered as non-responders for time points after the medication usage. For other participants, all available data including those collected during the off-treatment period were to be used to determine the responder/non-responder status. Missing data were to be considered as non-responders.", "key": {"[1]": {"conditions": "Omalizumab-Naïve Population, 400 mg BID, Week 1"}, "[2]": {"conditions": "Omalizumab-Naïve Population, 400 mg BID, Week 2"}, "[3]": {"conditions": "Omalizumab-Naïve Population, 400 mg BID, Week 3"}, "[4]": {"conditions": "Omalizumab-Naïve Population, 400 mg BID, Week 4"}, "[5]": {"conditions": "Omalizumab-Naïve Population, 400 mg BID, Week 12"}, "[6]": {"conditions": "Omalizumab-Naïve Population, 400 mg QPM, Week 1"}, "[7]": {"conditions": "Omalizumab-Naïve Population, 400 mg QPM, Week 2"}, "[8]": {"conditions": "Omalizumab-Naïve Population, 400 mg QPM, Week 3"}}, "data": [{"smiles": "CC(C)(C=C(C#N)C(=O)N1CCC[C@@H](n2nc(-c3ccc(Oc4ccccc4)cc3F)c3c(N)ncnc32)C1)N1CCN(C2COC2)CC1", "note": "[rilzabrutinib, (R)-2-[3-[4-amino-3-(2-fluoro-4-phenoxy-phenyl)pyrazolo[3,4-d]pyrimidin-1-yl]piperidine-1-carbonyl]-4-methyl-4-[4-(oxetan-3-yl)piperazin-1-yl]pent-2-enenitrile]", "values": [{"measurement": "UAS7 Post-baseline Mean (SD)", "setting": "Omalizumab-Naïve Population with Outlier Removed, 400 mg QPM, Week 2", "value": "23.44 (8.97)"}, {"measurement": "UAS7 Post-baseline Mean (SD)", "setting": "Omalizumab-Naïve Population with Outlier Removed, 400 mg QPM, Week 3", "value": "22.01 (9.00)"}, {"measurement": "UAS7 Post-baseline Mean (SD)", "setting": "Omalizumab-Naïve Population with Outlier Removed, 400 mg QPM, Week 4", "value": "21.92 (8.82)"}, {"measurement": "UAS7 Post-baseline Mean (SD)", "setting": "Omalizumab-Naïve Population with Outlier Removed, 400 mg QPM, Week 5", "value": "20.63 (9.18)"}, {"measurement": "UAS7 Post-baseline Mean (SD)", "setting": "Omalizumab-Naïve Population with Outlier Removed, 400 mg QPM, Week 6", "value": "20.21 (10.42)"}, {"measurement": "UAS7 Post-baseline Mean (SD)", "setting": "Omalizumab-Naïve Population with Outlier Removed, 400 mg QPM, Week 7", "value": "21.11 (10.03)"}, {"measurement": "UAS7 Post-baseline Mean (SD)", "setting": "Omalizumab-Naïve Population with Outlier Removed, 400 mg QPM, Week 9", "value": "20.25 (10.25)"}, {"measurement": "UAS7 Post-baseline Mean (SD)", "setting": "Omalizumab-Naïve Population with Outlier Removed, 400 mg QPM, Week 10", "value": "20.27 (10.69)"}, {"measurement": "UAS7 Post-baseline Mean (SD)", "setting": "Omalizumab-Naïve Population with Outlier Removed, 400 mg QPM, Week 11", "value": "21.17 (11.16)"}, {"measurement": "UAS7 Post-baseline Mean (SD)", "setting": "Omalizumab-Naïve Population with Outlier Removed, 400 mg TID, Week 1", "value": "18.29 (9.93)"}, {"measurement": "UAS7 Post-baseline Mean (SD)", "setting": "Omalizumab-Naïve Population with Outlier Removed, 400 mg TID, Week 2", "value": "16.03 (10.59)"}, {"measurement": "UAS7 Post-baseline Mean (SD)", "setting": "Omalizumab-Naïve Population with Outlier Removed, 400 mg TID, Week 3", "value": "15.20 (9.97)"}, {"measurement": "UAS7 Post-baseline Mean (SD)", "setting": "Omalizumab-Naïve Population with Outlier Removed, 400 mg TID, Week 4", "value": "14.65 (9.61)"}, {"measurement": "UAS7 Post-baseline Mean (SD)", "setting": "Omalizumab-Naïve Population with Outlier Removed, 400 mg TID, Week 5", "value": "13.41 (10.60)"}, {"measurement": "UAS7 Post-baseline Mean (SD)", "setting": "Omalizumab-Naïve Population with Outlier Removed, 400 mg TID, Week 6", "value": "14.10 (11.23)"}, {"measurement": "UAS7 Post-baseline Mean (SD)", "setting": "Omalizumab-Naïve Population with Outlier Removed, 400 mg TID, Week 7", "value": "13.54 (9.34)"}, {"measurement": "UAS7 Post-baseline Mean (SD)", "setting": "Omalizumab-Naïve Population with Outlier Removed, 400 mg TID, Week 8", "value": "13.36 (9.81)"}, {"measurement": "UAS7 Post-baseline Mean (SD)", "setting": "Omalizumab-Naïve Population with Outlier Removed, 400 mg TID, Week 9", "value": "12.57 (9.72)"}, {"measurement": "UAS7 Post-baseline Mean (SD)", "setting": "Omalizumab-Naïve Population with Outlier Removed, 400 mg TID, Week 10", "value": "12.61 (9.89)"}, {"measurement": "UAS7 Post-baseline Mean (SD)", "setting": "Omalizumab-Naïve Population with Outlier Removed, 400 mg TID, Week 12", "value": "11.00 (9.90)"}, {"measurement": "UAS7 % Change difference for rilzabrutinib vs. placebo LS Mean (95% CI)", "setting": "[1]", "value": "−25.01", "unit": "%"}, {"measurement": "UAS7 % Change from baseline LS Mean (SE)", "setting": "[1]", "value": "−34.48 (5.64) %"}, {"measurement": "UAS7 Change difference for rilzabrutinib vs. placebo LS Mean (95% CI)", "setting": "[1]", "value": "−6.24"}, {"measurement": "UAS7 Change from baseline LS Mean (SE)", "setting": "[1]", "value": "−9.79 (1.58)"}, {"measurement": "UAS7 Post-baseline Mean (SD)", "setting": "[1]", "value": "19.77 (11.32)"}, {"measurement": "UAS7 % Change difference for rilzabrutinib vs. placebo LS Mean (95% CI)", "setting": "[2]", "value": "−18.28", "unit": "%"}, {"measurement": "UAS7 % Change from baseline LS Mean (SE)", "setting": "[2]", "value": "−36.05 (5.50) %"}, {"measurement": "UAS7 Change difference for rilzabrutinib vs. placebo LS Mean (95% CI)", "setting": "[2]", "value": "−4.55"}, {"measurement": "UAS7 Change from baseline LS Mean (SE)", "setting": "[2]", "value": "−10.44 (1.57)"}, {"measurement": "UAS7 Post-baseline Mean (SD)", "setting": "[2]", "value": "19.59 (10.86)"}, {"measurement": "UAS7 % Change difference for rilzabrutinib vs. placebo LS Mean (95% CI)", "setting": "[3]", "value": "−20.16", "unit": "%"}, {"measurement": "UAS7 % Change from baseline LS Mean (SE)", "setting": "[3]", "value": "−40.11 (5.66) %"}, {"measurement": "UAS7 Change difference for rilzabrutinib vs. placebo LS Mean (95% CI)", "setting": "[3]", "value": "−5.04"}, {"measurement": "UAS7 Change from baseline LS Mean (SE)", "setting": "[3]", "value": "−11.96 (1.67)"}, {"measurement": "UAS7 Post-baseline Mean (SD)", "setting": "[3]", "value": "17.71 (11.91)"}, {"measurement": "UAS7 % Change difference for rilzabrutinib vs. placebo LS Mean (95% CI)", "setting": "[4]", "value": "−23.20", "unit": "%"}, {"measurement": "UAS7 % Change from baseline LS Mean (SE)", "setting": "[4]", "value": "−43.62 (5.88) %"}, {"measurement": "UAS7 Change difference for rilzabrutinib vs. placebo LS Mean (95% CI)", "setting": "[4]", "value": "−5.82"}, {"measurement": "UAS7 Change from baseline LS Mean (SE)", "setting": "[4]", "value": "−12.89 (1.73)"}, {"measurement": "UAS7 Post-baseline Mean (SD)", "setting": "[4]", "value": "15.92 (11.71)"}, {"measurement": "UAS7 Post-baseline Mean (SD)", "setting": "Omalizumab-Naïve Population, 400 mg BID, Week 5", "value": "17.22 (13.36)"}, {"measurement": "UAS7 Post-baseline Mean (SD)", "setting": "Omalizumab-Naïve Population, 400 mg BID, Week 6", "value": "17.02 (12.76)"}, {"measurement": "UAS7 Post-baseline Mean (SD)", "setting": "Omalizumab-Naïve Population, 400 mg BID, Week 7", "value": "15.55 (11.97)"}, {"measurement": "UAS7 Post-baseline Mean (SD)", "setting": "Omalizumab-Naïve Population, 400 mg BID, Week 8", "value": "13.98 (13.06)"}, {"measurement": "UAS7 Post-baseline Mean (SD)", "setting": "Omalizumab-Naïve Population, 400 mg BID, Week 9", "value": "14.64 (14.43)"}, {"measurement": "UAS7 Post-baseline Mean (SD)", "setting": "Omalizumab-Naïve Population, 400 mg BID, Week 10", "value": "15.22 (14.36)"}, {"measurement": "UAS7 Post-baseline Mean (SD)", "setting": "Omalizumab-Naïve Population, 400 mg BID, Week 11", "value": "15.06 (13.80)"}, {"measurement": "UAS7 % Change difference for rilzabrutinib vs. placebo LS Mean (95% CI)", "setting": "[5]", "value": "−17.85", "unit": "%"}, {"measurement": "UAS7 % Change from baseline LS Mean (SE)", "setting": "[5]", "value": "−48.13 (6.91) %"}, {"measurement": "UAS7 Change difference for rilzabrutinib vs. placebo LS Mean (95% CI)", "setting": "[5]", "value": "−4.09"}, {"measurement": "UAS7 Change from baseline LS Mean (SE)", "setting": "[5]", "value": "−14.24 (2.06)"}, {"measurement": "UAS7 Post-baseline Mean (SD)", "setting": "[5]", "value": "15.61 (13.91)"}, {"measurement": "UAS7 % Change difference for rilzabrutinib vs. placebo LS Mean (95% CI)", "setting": "[6]", "value": "−12.19", "unit": "%"}, {"measurement": "UAS7 % Change from baseline LS Mean (SE)", "setting": "[6]", "value": "−21.67 (5.45) %"}, {"measurement": "UAS7 Change difference for rilzabrutinib vs. placebo LS Mean (95% CI)", "setting": "[6]", "value": "−3.51"}, {"measurement": "UAS7 Change from baseline LS Mean (SE)", "setting": "[6]", "value": "−7.06 (1.52)"}, {"measurement": "UAS7 Post-baseline Mean (SD)", "setting": "[6]", "value": "23.81 (8.78)"}, {"measurement": "UAS7 % Change difference for rilzabrutinib vs. placebo LS Mean (95% CI)", "setting": "[7]", "value": "−6.60", "unit": "%"}, {"measurement": "UAS7 % Change from baseline LS Mean (SE)", "setting": "[7]", "value": "−24.37 (5.29) %"}, {"measurement": "UAS7 Change difference for rilzabrutinib vs. placebo LS Mean (95% CI)", "setting": "[7]", "value": "−1.81"}, {"measurement": "UAS7 Change from baseline LS Mean (SE)", "setting": "[7]", "value": "−7.71 (1.52)"}, {"measurement": "UAS7 Post-baseline Mean (SD)", "setting": "[7]", "value": "23.44 (8.97)"}, {"measurement": "UAS7 % Change difference for rilzabrutinib vs. placebo LS Mean (95% CI)", "setting": "[8]", "value": "−8.98", "unit": "%"}, {"measurement": "UAS7 % Change from baseline LS Mean (SE)", "setting": "[8]", "value": "−28.93 (5.48) %"}, {"measurement": "UAS7 Change difference for rilzabrutinib vs. placebo LS Mean (95% CI)", "setting": "[8]", "value": "−2.17"}, {"measurement": "UAS7 Change from baseline LS Mean (SE)", "setting": "[8]", "value": "−9.10 (1.61)"}]}]}
